Earlier results, collected in US20200155510A1, “TREATMENT OF AUTOIMMUNE DISORDERS, SUCH AS RELAPSING REMITTING MULTIPLE SCLEROSIS AND […] SYNDROME WITH BIOTIN COMPOSITIONS” (JDS Therapeutics, LLC, priority 2018, published 2020).

Details: relative to biotin; background statement, no method given

For `O=C(O)CCCC[C@@H]1SC[C@@H]2NC(=O)N[C@@H]21` [Magnesium biotinate, Magnesium D-biotinate], the water solubility is given as “more water soluble than biotin”.
